Experimental data taken from ChEMBL document CHEMBL1134130, “Carbonic anhydrase inhibitors: 4-sulfamoyl-benzenecarboxamides and 4-chloro-3-sulfamoyl-benzenecarboxamides with strong topical antiglaucoma properties” (Bioorg Med Chem Lett, 2001).
pKi: −log10 of the molar value.

What was measured:
Carbonic anhydrase 4 [1] = target: T1, Carbonic anhydrase 4 (Bos taurus, UniProt Q95323)
T1 sequence (Q95323 whole entry): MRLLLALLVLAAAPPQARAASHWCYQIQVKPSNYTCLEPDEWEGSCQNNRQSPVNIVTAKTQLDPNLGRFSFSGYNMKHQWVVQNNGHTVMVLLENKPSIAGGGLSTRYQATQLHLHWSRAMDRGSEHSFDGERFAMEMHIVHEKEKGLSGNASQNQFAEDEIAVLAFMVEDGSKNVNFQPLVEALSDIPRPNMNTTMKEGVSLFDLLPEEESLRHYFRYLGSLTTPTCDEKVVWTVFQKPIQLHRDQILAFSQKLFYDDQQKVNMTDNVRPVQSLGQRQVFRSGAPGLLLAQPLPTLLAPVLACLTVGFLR
Description: Compound was evaluated for binding affinity against bovine carbonic anhydrase IV (bCA IV)

Carbonic anhydrase 2 = Carbonic anhydrase 2 (Homo sapiens, UniProt P00918)
Description: Binding affinity against human carbonic anhydrase II (hCA -II)

Carbonic anhydrase 1 = Carbonic anhydrase 1 (Homo sapiens, UniProt P00915)
Description: Binding affinity against human carbonic anhydrase I (hCA I)

Carbonic anhydrase 4 [2] = target: T1, Carbonic anhydrase 4; remark: listed apart in the source
Description: Compound was evaluated for binding affinity against bovine Carbonic anhydrase IV

[3] = Compound was evaluated for in vitro corneal permeability in no epithelium; assay type: ADME, tissue-based, Cornea
physchem = settings: octanol/water
Description: Partition coefficient (logP)

[4] = Compound was evaluated for in vitro corneal permeability in cornea intact; assay type: ADME, tissue-based
Oryctolagus cuniculus [5] = species on record: Oryctolagus cuniculus
Description: Fall of in vivo intraocular pressure (IOP) of glaucomatous rabbits at 90 min after treatment with one drop (50 uL) solution of 2% of CA inhibitor directly into eye

Oryctolagus cuniculus [6] = species on record: Oryctolagus cuniculus; remark: listed apart in the source
Description: Fall of in vivo intraocular pressure (IOP) of glaucomatous rabbits at 30 min after treatment with one drop (50 uL) solution of 2% of CA inhibitor directly into eye

Oryctolagus cuniculus [7] = species on record: Oryctolagus cuniculus; remark: listed apart in the source
Description: In vivo intraocular pressure (IOP) lowering at 90 min in normotensive rabbits after treatment with one drop (50 uL) 2% solution of CA inhibitor directly into the eye, at 7.0 pH

Oryctolagus cuniculus [8] = species on record: Oryctolagus cuniculus; remark: listed apart in the source
Description: Fall of in vivo intraocular pressure (IOP) of glaucomatous rabbits at 60 min after treatment with one drop (50 uL) solution of 2% of CA inhibitor directly into eye

Oryctolagus cuniculus [9] = species on record: Oryctolagus cuniculus; remark: listed apart in the source
Description: Fall of in vivo intraocular pressure (IOP) of glaucomatous rabbits at 120 min after treatment with one drop (50 uL) solution of 2% of CA inhibitor directly into eye

Oryctolagus cuniculus [10] = species on record: Oryctolagus cuniculus; remark: listed apart in the source
Description: In vivo intraocular pressure (IOP) lowering at 60 min in normotensive rabbits after treatment with one drop (50 uL) 2% solution of CA inhibitor directly into the eye, at 7.0 pH

Oryctolagus cuniculus [11] = species on record: Oryctolagus cuniculus; remark: listed apart in the source
Description: In vivo intraocular pressure (IOP) lowering at 120 min in normotensive rabbits after treatment with one drop (50 uL) 2% solution of CA inhibitor directly into the eye, at 7.0 pH

Oryctolagus cuniculus [12] = species on record: Oryctolagus cuniculus; remark: listed apart in the source
Description: Fall of in vivo intraocular pressure (IOP) of glaucomatous rabbits at 0 min after treatment with one drop (50 uL) solution of 2% of CA inhibitor directly into eye

Oryctolagus cuniculus [13] = species on record: Oryctolagus cuniculus; remark: listed apart in the source
Description: In vivo intraocular pressure (IOP) lowering at 30 min in normotensive rabbits after treatment with one drop (50 uL) 2% solution of CA inhibitor directly into the eye, at 7.0 pH

Sequence of Carbonic anhydrase 1 (P00915 whole entry): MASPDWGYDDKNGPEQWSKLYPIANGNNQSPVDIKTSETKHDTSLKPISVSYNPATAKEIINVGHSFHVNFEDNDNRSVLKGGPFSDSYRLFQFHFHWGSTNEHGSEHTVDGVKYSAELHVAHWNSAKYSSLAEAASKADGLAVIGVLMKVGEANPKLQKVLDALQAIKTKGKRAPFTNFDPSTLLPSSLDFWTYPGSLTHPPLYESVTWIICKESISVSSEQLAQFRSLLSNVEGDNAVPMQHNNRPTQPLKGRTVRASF

| Compound | pKi (Carbonic anhydrase 4 [1]) | pKi (Carbonic anhydrase 2) | pKi (Carbonic anhydrase 1) | further results |
| --- | --- | --- | --- | --- |
| NS(=O)(=O)c1cc(C(=O)Nc2nnc(S)s2)ccc1Cl | 7.68 | 7.96 | 7.82 | – |
| NS(=O)(=O)c1cc(C(=O)N[C@@H](Cc2ccccc2)C(=O)O)ccc1Cl | 6.47 | 6.60 | 6.87 | – |
| NC(=O)C[C@H](NC(=O)c1ccc(Cl)c(S(N)(=O)=O)c1)C(=O)O | 6.48 | 6.56 | 6.62 | – |
| NS(=O)(=O)c1cc(C(=O)NCCC(=O)O)ccc1Cl | 6.21 | 6.35 | 6.69 | – |
| NS(=O)(=O)c1ccc(C(=O)N[C@@H](CC(=O)O)C(=O)O)cc1 | 6.82 | 7.14 | 6.37 | – |
| NC(=O)CC[C@H](NC(=O)c1ccc(Cl)c(S(N)(=O)=O)c1)C(=O)O | 6.39 | 6.52 | 6.60 | – |
| NS(=O)(=O)c1cc(C(=O)NCCCC(=O)O)ccc1Cl | 6.27 | 6.40 | 6.70 | – |
| C[C@@H](O)[C@H](NC(=O)c1ccc(Cl)c(S(N)(=O)=O)c1)C(=O)O | 6.13 | 6.28 | 6.49 | – |
| NS(=O)(=O)c1ccc(C(=O)N[C@@H](CCC(=O)O)C(=O)O)cc1 | 6.80 | 7.13 | 6.37 | – |
| NS(=O)(=O)c1ccc(C(=O)N[C@@H](CS)C(=O)O)cc1 | 6.64 | 6.96 | 6.35 | – |
| NS(=O)(=O)c1ccc(C(=O)Nc2nnc(S(N)(=O)=O)s2)cc1 | 7.82 | 8.52 | 7.46 | – |
| NS(=O)(=O)c1cc(C(=O)NCC(=O)O)ccc1Cl | 6.22 | 6.35 | 6.68 | – |
| CC(C)[C@H](NC(=O)c1ccc(S(N)(=O)=O)cc1)C(=O)O | 6.82 | 7.13 | 6.38 | – |
| NS(=O)(=O)c1ccc(CCNC(=O)c2ccc(Cl)c(S(N)(=O)=O)c2)cc1 | 7.20 | 7.59 | 7.68 | – |
| NS(=O)(=O)c1cc(C(=O)N[C@@H](Cc2c[nH]cn2)C(=O)NCC(=O)O)ccc1Cl | 7.14 | 7.30 | 7.39 | – |
| NS(=O)(=O)c1ccc(C(=O)NCC(=O)O)cc1 | – | 7.07 | 6.30 | pKi (Carbonic anhydrase 4 [2]): 6.70 |
| NS(=O)(=O)c1ccc(C(=O)N[C@@H](Cc2ccccc2)C(=O)O)cc1 | 6.89 | 7.28 | 6.25 | – |
| NS(=O)(=O)c1ccc(C(=O)NC(C(=O)O)c2ccccc2)cc1 (stereo not drawn) | 7.12 | 7.44 | 6.60 | – |
| NS(=O)(=O)c1ccc(CNC(=O)c2ccc(Cl)c(S(N)(=O)=O)c2)cc1 | 7.21 | 7.55 | 7.62 | – |
| NS(=O)(=O)c1cc(C(=O)N[C@H](C(=O)O)C(O)c2ccccc2)ccc1Cl (stereo partly drawn) | 7.01 | 7.21 | 7.43 | – |

| Compound | pKi (Carbonic anhydrase 4 [1]) | pKi (Carbonic anhydrase 2) | pKi (Carbonic anhydrase 1) | further results |
| --- | --- | --- | --- | --- |
| NS(=O)(=O)c1ccc(C(=O)N[C@@H](Cc2ccc(O)cc2)C(=O)O)cc1 | 6.92 | 7.35 | 6.27 | – |
| CC[C@H](C)[C@H](NC(=O)c1ccc(Cl)c(S(N)(=O)=O)c1)C(=O)O | 6.44 | 6.55 | 6.82 | – |
| CC(C)[C@H](NC(=O)c1ccc(Cl)c(S(N)(=O)=O)c1)C(=O)O | 6.44 | 6.48 | 6.89 | – |
| C[C@H](NC(=O)c1ccc(Cl)c(S(N)(=O)=O)c1)C(=O)O | 6.32 | 6.38 | 6.76 | – |
| NC(=O)CC[C@H](NC(=O)c1ccc(S(N)(=O)=O)cc1)C(=O)O | 6.80 | 7.12 | 6.37 | – |
| NS(=O)(=O)c1ccc(C(=O)NCCC(=O)O)cc1 | – | 7.07 | 6.36 | pKi (Carbonic anhydrase 4 [2]): 6.72 |
| NS(=O)(=O)c1cc(C(=O)N[C@@H](CO)C(=O)O)ccc1Cl | 6.40 | 6.54 | 6.77 | – |
| NS(=O)(=O)c1ccc(CNC(=O)c2ccc(S(N)(=O)=O)cc2)cc1 | 7.80 | 8.15 | 7.40 | – |
| NS(=O)(=O)c1ccc(CCNC(=O)c2ccc(S(N)(=O)=O)cc2)cc1 | 7.89 | – | – | Km x10e3 [3]: 6.3 hr-1; logP (physchem): 1.43; Km x10e3 [4]: 2.5 hr-1 |
| CCC(C)[C@H](NC(=O)c1ccc(S(N)(=O)=O)cc1)C(=O)O (single isomer, unassigned) | 7.07 | 7.32 | 6.46 | – |
| NS(=O)(=O)c1cc(C(=O)N[C@@H](Cc2ccc(O)cc2)C(=O)O)ccc1Cl | 6.49 | 6.60 | 6.94 | – |
| NS(=O)(=O)c1ccc(C(=O)N[C@@H](Cc2cnc[nH]2)C(=O)O)cc1 | 6.90 | 7.40 | 6.57 | – |
| NS(=O)(=O)c1cc(C(=O)N[C@@H](CS)C(=O)O)ccc1Cl | 6.14 | 6.31 | 6.52 | – |
| CSCC[C@H](NC(=O)c1ccc(S(N)(=O)=O)cc1)C(=O)O | 6.82 | 7.18 | 6.40 | – |
| NS(=O)(=O)c1ccc(C(=O)N[C@@H](CO)C(=O)O)cc1 | 6.49 | 6.92 | 6.36 | – |
| NS(=O)(=O)c1cc(C(=O)NCCC(=O)N[C@@H](Cc2cnc[nH]2)C(=O)O)ccc1Cl | 7.30 | 7.44 | 7.52 | – |
| NS(=O)(=O)c1ccc(C(=O)N[C@@H](Cc2c[nH]cn2)C(=O)NCC(=O)O)cc1 | 7.72 | 8.00 | 6.42 | – |
| NS(=O)(=O)c1ccc(NC(=O)c2ccc(Cl)c(S(N)(=O)=O)c2)cc1 | 7.18 | 7.52 | 7.62 | – |
| CC(C)C[C@H](NC(=O)c1ccc(Cl)c(S(N)(=O)=O)c1)C(=O)NCC(=O)O | 7.10 | 7.29 | 7.41 | – |
| NS(=O)(=O)c1cc(C(=O)NCC(=O)NCC(=O)O)ccc1Cl | 6.77 | 7.07 | 7.16 | – |

| Compound | pKi (Carbonic anhydrase 4 [1]) | pKi (Carbonic anhydrase 2) | pKi (Carbonic anhydrase 1) | further results |
| --- | --- | --- | --- | --- |
| NS(=O)(=O)c1ccc(C(=O)NC(Cc2ccc(O)c(O)c2)C(=O)O)cc1 (stereo not drawn) | 6.98 | 7.37 | 6.28 | – |
| NS(=O)(=O)c1cc(C(=O)N[C@@H](Cc2c[nH]cn2)C(=O)O)ccc1Cl | 6.46 | 6.68 | 6.99 | – |
| NS(=O)(=O)c1cc(C(=O)N[C@@H](CCC(=O)O)C(=O)O)ccc1Cl | 6.40 | 6.47 | 6.52 | – |
| C[C@@H](O)[C@H](NC(=O)c1ccc(S(N)(=O)=O)cc1)C(=O)O | 6.46 | 6.94 | 6.32 | – |
| C[C@H](NC(=O)c1ccc(S(N)(=O)=O)cc1)C(=O)O | 7.12 | 7.10 | 6.37 | – |
| NS(=O)(=O)c1ccc(C(=O)NCCCC(=O)O)cc1 | 6.92 | 7.14 | 6.38 | – |
| CSCC[C@H](NC(=O)c1ccc(Cl)c(S(N)(=O)=O)c1)C(=O)O | 6.19 | 6.39 | 6.62 | – |
| NS(=O)(=O)c1cc(C(=O)NC(Cc2ccc(O)c(O)c2)C(=O)O)ccc1Cl (stereo not drawn) | 6.48 | 6.62 | 7.00 | – |
| NC(=O)C[C@H](NC(=O)c1ccc(S(N)(=O)=O)cc1)C(=O)O | 6.81 | 7.14 | 6.39 | – |
| NS(=O)(=O)c1ccc(C(=O)N[C@H](C(=O)O)C(O)c2ccccc2)cc1 (stereo partly drawn) | 7.21 | 7.68 | 7.27 | – |
| C[C@H](NC(=O)c1ccc(Cl)c(S(N)(=O)=O)c1)C(=O)N[C@@H](Cc1ccccc1)C(=O)O | 7.14 | 7.36 | 7.44 | – |
| NS(=O)(=O)c1cc(C(=O)N[C@H](C(=O)O)c2ccccc2)ccc1Cl | 6.62 | 6.80 | 6.98 | – |
| CC(C)C[C@H](NC(=O)c1ccc(S(N)(=O)=O)cc1)C(=O)O | 7.05 | 7.28 | 6.39 | – |
| NS(=O)(=O)c1ccc(C(=O)NCC(=O)NCC(=O)O)cc1 | 7.30 | 7.38 | 6.46 | – |
| NS(=O)(=O)c1ccc(C(=O)N[C@@H](Cc2c[nH]cn2)C(=O)N[C@@H](Cc2ccccc2)C(=O)O)cc1 | 7.64 | 8.05 | 6.62 | Delta IOP (Oryctolagus cuniculus [5]): 11 mmHg; Delta IOP (Oryctolagus cuniculus [6]): 7.1 mmHg; Delta IOP (Oryctolagus cuniculus [7]): 9.1 mmHg; Delta IOP (Oryctolagus cuniculus [8]): 12 mmHg; Delta IOP (Oryctolagus cuniculus [9]): 10 mmHg; Delta IOP (Oryctolagus cuniculus [10]): 6.5 mmHg; Km x10e3 [3]: 5.8 hr-1; Delta IOP (Oryctolagus cuniculus [11]): 9.5 mmHg; logP (physchem): 1.74; Km x10e3 [4]: 2.9 hr-1; Delta IOP (Oryctolagus cuniculus [12]): 0 mmHg; Delta IOP (Oryctolagus cuniculus [13]): 4.2 mmHg |
| NS(=O)(=O)c1cc(C(=O)N[C@@H](Cc2c[nH]cn2)C(=O)N[C@@H](Cc2ccccc2)C(=O)O)ccc1Cl | 7.35 | 7.42 | 7.57 | – |
| C[C@H](NC(=O)c1ccc(S(N)(=O)=O)cc1)C(=O)N[C@@H](Cc1ccccc1)C(=O)O | 7.62 | 7.92 | 6.49 | – |
| CC(C)C[C@H](NC(=O)c1ccc(Cl)c(S(N)(=O)=O)c1)C(=O)O | 6.48 | 6.52 | 6.90 | – |
| NS(=O)(=O)c1ccc(C(=O)NCCC(=O)N[C@@H](Cc2c[nH]cn2)C(=O)O)cc1 | 7.68 | 7.80 | 6.57 | – |
| NS(=O)(=O)c1cc(C(=O)N[C@@H](CC(=O)O)C(=O)O)ccc1Cl | 6.45 | 6.52 | 6.55 | – |
